Among the data in ChEMBL document CHEMBL1126819, “Amino acid bioisosteres: design of 2-quinolone derivatives as glycine-site N-methyl-D-aspartate receptor antagonists” (Bioorg Med Chem Lett, 1993) are IC50, Kb and pKa values, retold here.

For series [1], the target named is Glutamate NMDA receptor. In kind it is cell membranes, Rattus norvegicus, Membrane.
Description: Displacement of [3H]L-689,560 from NMDA receptor glycine site of rat brain membranes
The species named for series [2] is Rattus norvegicus. The experiment in a line: Tested for ability to inhibit NMDA-induced depolarizations in rat cortical slices. In kind it is functional.
The nature of series [3]: Dissociation constant pKa was determined. Type of series: physicochemical.

Bounds are passed on as bounds.

One may read the IC50 as the concentration needed to halve the response being measured. Low readings indicate higher potency, high ones lower potency. The compound `Oc1nc2cc(Cl)cc(Cl)c2c(O)c1-c1ccccc1` returned a 50% inhibitory concentration (IC50) in series [1] of 0.097 µM.
For `O=C(O)c1cc(O)c2c(Cl)cc(Cl)cc2n1`, in series [1], the IC50 was 0.064 µM. In addition, the Kb in series [2] was 1.9 µM.
Take `Oc1nc2cc(Cl)ccc2c(O)c1C1CCCCC1`: the IC50 in series [1] was about 100 µM.
As a reminder, the pKa is the pH at which an ionisable group is half protonated. `O=[N+]([O-])c1cc([N+](=O)[O-])c2nc(O)c(O)nc2c1`: the pKa in series [3] was 6.5. This compound came in with an IC50 in series [1] of 0.17 µM. This compound displayed a Kb in series [2] of 1.2 µM.
Consider `O=c1cc(O)c2ccc(Cl)cc2[nH]1`, for which the IC50 in series [1] is over 300 µM.
On to `O=C1Nc2cc(Cl)ccc2CC1[N+](=O)[O-]` (stereo not drawn), for which it took 0.41 µM to reach half-maximal inhibition in series [1] (IC50). Also, in series [2], the Kb is 6.7 µM.
`COC(=O)c1c(O)c2ccc(Cl)cc2[nH]c1=O` returned a half-inhibitory concentration (IC50) in series [1] of 6.5 µM.
Consider `CCc1cc(Cl)cc2nc(O)c(-c3ccccc3)c(O)c12`, for which the IC50 in series [1] worked out at 0.0069 µM.
Take `O=C(Nc1ccccc1)N[C@H]1C[C@H](C(=O)O)Nc2cc(Cl)cc(Cl)c21`: the pKa in series [3] was about 4. For the same compound, the IC50 in series [1] amounted to 0.004 µM. The Kb in series [2] turned out to be 0.11 µM.
Consider `C[C@@H]1CN(O)C(=O)[C@@H]1N`, for which the IC50 in series [1] came to 2.7 µM.
The compound `O=C(O)c1cc(O)c2ccc(Cl)cc2n1` [7-CHLOROKYNURENIC ACID] had a Kb in series [2] of 7 µM.
Take `O=c1[nH]c2cc(Cl)ccc2c(O)c1-c1ccccc1`: the pKa in series [3] turned out to be 5.4. In series [1], half-maximal inhibition (IC50) was put at 0.17 µM. The Kb in series [2] is 0.88 µM.
Take `O=C(O)c1cc(O)c2c(I)cc(Cl)cc2n1`: in series [1], the IC50 amounted to 0.014 µM. In addition, the Kb in series [2] was 0.41 µM.
In turn, `O=C(c1ccccc1)c1c(O)nc2cc(Cl)ccc2c1O` displayed an IC50 in series [1] of 3.2 µM.
